Measurements as given in article PMC4471590 (Chemistry (Weinheim an Der Bergstrasse, Germany), 2015).

Target: LytA239–252 (Streptococcus pneumoniae, UniProt P06653)
Test: near-UV CD titration, ellipticity at […] nm
Format: binding

## C[N+](C)(C)CCO [choline]
  Kd: 80 ± 10 mM
